Structures can show the parent of a compound that is named as a salt. Starred links: 1 amine or outer side, 2 acyl side, 3 side chain; linkers in the order of their positions; H or OH if unused. Positions of bridges follow the written chain, without caps; N, C: chain ends. Non-standard residues stand in square brackets, D forms with d. Residues, ends and D or L forms follow the SMILES beside them. Chains are numbered I, II in the order given. *: point of attachment. TATA = O=C(CC[*:1])N1CN(C(=O)CC[*:2])CN(C(=O)CC[*:3])C1; Dolaproine = CO[C@@H]([C@@H]1CCCN1)[C@@H](C)C(=O)O; Dil = CC[C@H](C)[C@H](NC)[C@@H](CC(=O)O)OC; 1Nal = N[C@@H](Cc1cccc2ccccc12)C(=O)O; X2 = O=C(CCCC(=O)[*:2])NCCC(=O)[*:1]; PABC = O=C(OCc1ccc(N[*:1])cc1)[*:2]; X1 = C[C@@H](N*)[C@@H](O)c1ccccc1; Hyp = O=C(O)[C@@H]1C[C@@H](O)CN1; hArg = N=C(N)NCCCC[C@H](N)C(=O)O; Cit = NC(=O)NCCC[C@H](N)C(=O)O; Pen = CC(C)(S)[C@H](N)C(=O)O; NMeV = CN[C@H](C(=O)O)C(C)C; Sar = CNCC(=O)O
Experiments:
[1] = Metabolic stability in hepatocytes, CD-1 mice; assay type: in vitro ADME; conditions: mouse, hepatocytes (cryopreserved, suspension), CD-1 mice hepatocytes, 0.5×10^6 cells/mL
Experimental: Test Example 7: Metabolic Stability of the Compounds of the Present Invention in Hepatocytes from Mice, Rats, Cynomolgus Macaques, and Humans
To investigate the metabolic stability of the compounds of the present invention in hepatocytes from mice, rats, Cynomolgus macaques, and humans.
Incubations were performed in 96-well plates using an external extraction method. Several 96-well sample precipitation plates, designated T0, T15, T30, T60, T90, TO-MC, T90-MC, and blank matrix, were prepared, respectively. The recovery culture medium and incubation culture medium were removed in advance and placed in a 37° C. water bath for preheating. […]
At the end of the incubation at the corresponding time point, the incubation plates were removed, from which 25 μL of a compound mixture with the cells and a control compound mixture with the cells were removed and added to sample plates containing 125 μL of stop buffer, respectively. […] All samples were mixed uniformly and then analyzed by the LC-MS/MS method.
The concentration of the compound to be tested and the concentration of the control in the sample were semi-quantitatively determined by the liquid chromatography-tandem mass spectrometry (LC-MS/MS) method without a standard curve and quality control sample. […]

NCI-H292 cells = experiment: In vitro anti-proliferative activity, CellTiter-Glo, NCI-H292; assay type: cell-based, Human; conditions: NCI-H292, 72 h
Experimental: Test Example 2: In Vitro Anti-Proliferative Activity of the Compounds of the Present Invention on Nci-H292 and Mda-Mb-468 Cells
To investigate the effect of the compounds of the present invention on inhibiting cell proliferation by detecting the effect of the compounds on cell activity in vitro in tumor cell lines MDA-MB-468 and NCI-H292.
The tumor cell lines were cultured in a 37° C., no CO2 incubator and a 37° C., 5% CO2 incubator according to the culture conditions shown in Table 8, respectively. The cells were periodically passaged, and cells in a logarithmic growth phase were taken for plating.
Cells in a logarithmic growth phase were harvested and centrifuged at 1000 rpm for 3 min at room temperature. The supernatant was discarded, and the cells were resuspended in 5 mL of a culture medium. Then, 20 μL of the cell suspension was pipetted and mixed with trypan blue at 1:1 for staining for 3 min to detect cell viability and to count viable cells. The cell density was adjusted to 3000 cells/well. Then, 90 μL of the cell suspension was added to each culture plate well, and a cell-free culture medium was added to blank control wells. The culture plate was incubated overnight in a 37° C., no CO2, and 100% relative humidity incubator and a 37° C., 5% CO2, and 100% relative humidity incubator, respectively.
Preparation of a 400× compound stock plate: The compound to be tested was gradient diluted with DMSO from the highest to the lowest concentration.
Preparation of a 10× compound working solution: 78 μL of a cell culture medium was added to a V-bottomed 96-well plate, and 2 μL of the compound solution of each concentration was pipetted from the 400× compound stock plate into the cell culture medium in the 96-well plate. Then, 2 μL of DMSO was added to vehicle control and blank control. […]
The detection was performed according to the instructions of the Promega CellTiter-Glo Luminescent Cell Viability Assay kit (Promega-G7573). The luminescence signal was detected on the En Vision® Multi-mode Plate Reader (En Vision 2104-10). […]

## CC[C@H](C)[C@@H]([C@@H](CC(=O)N1CCC[C@H]1[C@H](OC)[C@@H](C)C(=O)N[C@H](C)[C@@H](O)c1ccccc1)OC)N(C)C(=O)[C@@H](NC(=O)[C@H](C(C)C)N(C)C(=O)OCc1ccc(NC(=O)[C@H](CCCNC(N)=O)NC(=O)[C@@H](NC(=O)CCCC(=O)NCCC(=O)N(C)CC(=O)N(C)CC(=O)N(C)CC(=O)N(C)CC(=O)N(C)CC(=O)N(C)CC(=O)N(C)CC(=O)N(C)CC(=O)N(C)CC(=O)N(C)CC(=O)N[C@H]2CCCCNC(=O)C[C@@H](C(=O)N[C@H]3CSCCC(=O)N4CN5CN(C4)C(=O)CCSC(C)(C)[C@H](NC(=O)[C@@H](CC(=O)O)NC(=O)[C@H](Cc4cccc6ccccc46)NC(=O)[C@@H]4CCCN4C3=O)C(=O)N[C@@H](CCSC)C(=O)N[C@@H](CCCCNC(=N)N)C(=O)N[C@@H](CC(=O)O)C(=O)N[C@@H](Cc3c[nH]c4ccccc34)C(=O)N[C@@H](CO)C(=O)N[C@@H]([C@@H](C)O)C(=O)N3CCC[C@H]3C(=O)N3C[C@H](O)C[C@H]3C(=O)N[C@@H](Cc3c[nH]c4ccccc34)C(=O)N[C@H](C(N)=O)CSCCC5=O)NC(=O)CN(C)C2=O)C(C)C)cc1)C(C)C [Acetate salt of PDC_2] (I: [Sar][Sar][Sar][Sar][Sar][Sar][Sar][Sar][Sar][Sar]K[Sar]DCP[1Nal][dD][Pen]M[hArg]DWSTP[Hyp]WC-NH2 / II: V[Cit][PABC][NMeV]V[Dil][Dolaproine]-X1; lactam I:11-I:13; linker I:14-I:18-I:28 via TATA; linker I:N-II:N via X2)
[1]
  half-life at 1 μM: > 3.61 h
[1]; read-out: CLint (liver)
  CLint scaled at 1 μM: < 75.9 mL/min/kg
NCI-H292 cells
  IC50: 0.0421 µM
  Maximum inhibition rate: 81.32%
  Minimum inhibition rate: 1.55%

From US12539335B2, “Tricyclic polypeptide conjugated drug and use thereof” (CONJUSTAR (ZHUHAI) BIOLOGICS CO., LTD., priority 2021, dated 2026)
